Assay results taken from ChEMBL document CHEMBL1201862, “PubChem BioAssay data set” (2004).
“And” between values parts separate entries of the source, which are not always exact repeats. Equal values may be shown once. The source made the active and inactive calls.

Experiments:
[1] = biological target: T1, Insulin-degrading enzyme (Homo sapiens, UniProt P14735); assay: recombinant IDE activation, cell-free – biochemical, fluorescence polarization, counter-screen for IDE activator project, dose response (AID 588681)
T1 sequence (P14735 whole entry): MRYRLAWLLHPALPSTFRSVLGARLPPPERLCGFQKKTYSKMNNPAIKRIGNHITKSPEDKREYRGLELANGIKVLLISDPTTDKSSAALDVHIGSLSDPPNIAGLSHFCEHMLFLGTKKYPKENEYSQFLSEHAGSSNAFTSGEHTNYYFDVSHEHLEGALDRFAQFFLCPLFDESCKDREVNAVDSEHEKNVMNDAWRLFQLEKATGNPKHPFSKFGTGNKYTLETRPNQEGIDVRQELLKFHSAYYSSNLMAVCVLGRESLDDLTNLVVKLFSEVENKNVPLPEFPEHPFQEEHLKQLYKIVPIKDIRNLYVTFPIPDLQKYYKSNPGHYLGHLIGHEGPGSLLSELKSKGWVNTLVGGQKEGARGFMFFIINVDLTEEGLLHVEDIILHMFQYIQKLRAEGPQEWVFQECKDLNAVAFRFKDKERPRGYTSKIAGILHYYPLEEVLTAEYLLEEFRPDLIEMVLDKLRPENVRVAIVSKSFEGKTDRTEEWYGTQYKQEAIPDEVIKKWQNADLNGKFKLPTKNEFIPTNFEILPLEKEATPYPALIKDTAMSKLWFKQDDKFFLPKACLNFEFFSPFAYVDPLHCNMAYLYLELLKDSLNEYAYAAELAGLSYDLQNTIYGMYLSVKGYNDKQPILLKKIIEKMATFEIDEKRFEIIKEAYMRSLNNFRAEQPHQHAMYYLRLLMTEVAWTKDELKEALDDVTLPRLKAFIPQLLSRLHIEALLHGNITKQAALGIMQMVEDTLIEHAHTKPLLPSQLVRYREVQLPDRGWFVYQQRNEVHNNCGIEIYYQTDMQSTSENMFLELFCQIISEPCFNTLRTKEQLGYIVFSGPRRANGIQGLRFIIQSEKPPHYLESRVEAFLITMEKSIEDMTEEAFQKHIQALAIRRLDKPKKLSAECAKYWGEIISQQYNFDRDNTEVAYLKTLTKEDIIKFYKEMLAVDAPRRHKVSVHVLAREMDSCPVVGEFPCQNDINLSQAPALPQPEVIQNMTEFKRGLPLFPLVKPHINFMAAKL

[2] = biological target: T1, Insulin-degrading enzyme; assay: cellular IDE activation of Abeta substrate cleavage – fluorescence polarization, HEK cells, dose response (AID 588439); assay type: functional, cell-based
[3] = test system: HEK293; assay: membrane integrity loss in HEK cells – cell-based, fluorescence, cytotoxicity control for IDE activator project, dose response (AID 588440); assay type: functional; conditions: Homo sapiens;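 further: cytotoxicity by LDH release measuring loss of membrane integrity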
[4] = test system: HEK293; assay: optical interference in Abeta FP readout, dose response, artefact control for IDE activator project, biochemical, fluorescence polarization (AID 588442); assay type: functional, cell-based; conditions: Homo sapiens
[5] = biological target: Protein disulfide-isomerase (Homo sapiens, UniProt P07237); assay: inhibition of PDI-driven insulin aggregation – biochemical, turbidity, absorbance, cherry-picked samples, dose response (AID 602350); assay type: functional
[6] = biological target: Beta-2 adrenergic receptor (Homo sapiens, UniProt P07550); assay: ADRB2 activation measured by internalization – cell-based, FAP fluorogen, flow cytometry, cherry pick 1, dose response (AID 588763); assay type: functional
[7] = test system: Vero; assay: viability of Vero cells under compound – cytotoxicity control for flavivirus capping enzyme inhibitors (AID 588742); assay type: functional; conditions: Chlorocebus sabaeus
[8] = biological target: Genome polyprotein (dengue virus type 2, UniProt P29990); assay: flavivirus cap methylation enzyme inhibition – biochemical, confirmation dose response, primary screen (AID 588689); assay type: functional
[9] = Trypanosoma cruzi growth suppression in host cells – NIH3T3 host cells, beta-gal luminescence, confirmation (AID 2044); assay type: functional, cell-based;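 further: intracellular parasites grown in NIH/3T3 mouse fibroblasts as host cells; luminescent beta-galactosidase reporter signal from transgenic T. cruzi replicating inside host cells; inhibitors lower the luminescence signal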
[10] = NIH3T3 cell viability loss – ATP luminescence, mouse fibroblasts, counter-screen, dose response (AID 2010); assay type: functional, cell-based;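 further: cells exposed to compound for about 90 hours before reading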
[11] = Luminescence Cell-Based Dose Confirmation HTS to Identify Activators of 5'UTR Stem-Loop Driven Alpha-Synuclein mRNA Translation in H4 Neuroglioblastoma Cells. [Related pubchem assays: 1829 (Project Summary), 1814 (Primary HTS)]; assay type: functional
[12] = Luminescence Cell-Based Dose Response HTS to Identify Activators of Luciferase Translation or Activity in H4 […] Cells. [Related pubchem assays: 1829 (Project Summary), 1814 (Primary HTS)]; assay type: functional
[13] = test system: H4; assay: Luminescence Cell-Based Dose Response HTS to Identify Activators of 5'UTR Stem-Loop Driven Prion Protein mRNA Translation in H4 Neuroglioblastoma Cells. [Related pubchem assays: 1829 (Project Summary), 1814 (Primary HTS)]; assay type: functional; conditions: Homo sapiens
[14] = biological target: T2, CAAX prenyl protease 2 (Saccharomyces cerevisiae S288c, UniProt Q03530); assay type: biochemical
T2 sequence (Q03530 whole entry): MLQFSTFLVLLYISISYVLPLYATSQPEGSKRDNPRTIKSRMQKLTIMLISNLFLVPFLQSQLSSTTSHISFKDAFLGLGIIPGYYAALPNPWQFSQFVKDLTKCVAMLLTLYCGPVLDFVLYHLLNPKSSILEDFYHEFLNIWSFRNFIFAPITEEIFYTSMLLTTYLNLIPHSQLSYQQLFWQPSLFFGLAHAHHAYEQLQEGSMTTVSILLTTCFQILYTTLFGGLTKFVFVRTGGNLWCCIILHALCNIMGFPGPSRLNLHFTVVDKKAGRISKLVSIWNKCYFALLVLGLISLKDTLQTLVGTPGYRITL

[15] = biological target: T3, Protein RecA (Mycobacterium tuberculosis, UniProt P9WHJ3); assay: Fluorescence Cell-Free Homogeneous Dose Retest to Identify Inhibitors of RecA-Intein Splicing Activity. [Related pubchem assays (depositor defined):AID2097, AID2223, AID489010, AID492950]; assay type: functional
T3 sequence (P9WHJ3 whole entry): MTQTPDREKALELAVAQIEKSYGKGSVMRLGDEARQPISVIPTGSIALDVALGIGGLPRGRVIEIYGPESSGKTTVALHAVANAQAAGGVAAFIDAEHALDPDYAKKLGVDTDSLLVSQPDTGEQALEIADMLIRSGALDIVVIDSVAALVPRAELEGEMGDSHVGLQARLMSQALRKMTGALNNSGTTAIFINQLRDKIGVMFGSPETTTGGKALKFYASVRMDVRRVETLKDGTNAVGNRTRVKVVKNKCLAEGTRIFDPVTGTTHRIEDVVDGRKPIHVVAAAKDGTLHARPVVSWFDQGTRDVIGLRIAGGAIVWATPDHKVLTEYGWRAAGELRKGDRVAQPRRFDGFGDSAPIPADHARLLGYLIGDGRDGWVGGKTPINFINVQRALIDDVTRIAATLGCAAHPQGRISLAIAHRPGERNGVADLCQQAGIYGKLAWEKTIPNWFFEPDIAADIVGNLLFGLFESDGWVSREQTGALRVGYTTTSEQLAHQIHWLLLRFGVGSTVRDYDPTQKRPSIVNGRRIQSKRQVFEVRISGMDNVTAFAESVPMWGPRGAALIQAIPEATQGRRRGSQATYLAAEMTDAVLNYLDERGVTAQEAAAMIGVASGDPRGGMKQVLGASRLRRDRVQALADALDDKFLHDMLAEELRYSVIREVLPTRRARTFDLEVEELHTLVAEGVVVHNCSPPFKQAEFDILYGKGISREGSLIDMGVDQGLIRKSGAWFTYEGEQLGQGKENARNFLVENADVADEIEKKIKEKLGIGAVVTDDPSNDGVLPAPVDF

[16] = biological target: T4, CAAX prenyl protease 2 (Homo sapiens, UniProt Q9Y256); assay: inhibition of Ras-converting CAAX protease Rce1 – biochemical, yeast membranes, quenched-peptide fluorescence, cherry-pick, dose response (AID 588849)
T4 sequence (Q9Y256 whole entry): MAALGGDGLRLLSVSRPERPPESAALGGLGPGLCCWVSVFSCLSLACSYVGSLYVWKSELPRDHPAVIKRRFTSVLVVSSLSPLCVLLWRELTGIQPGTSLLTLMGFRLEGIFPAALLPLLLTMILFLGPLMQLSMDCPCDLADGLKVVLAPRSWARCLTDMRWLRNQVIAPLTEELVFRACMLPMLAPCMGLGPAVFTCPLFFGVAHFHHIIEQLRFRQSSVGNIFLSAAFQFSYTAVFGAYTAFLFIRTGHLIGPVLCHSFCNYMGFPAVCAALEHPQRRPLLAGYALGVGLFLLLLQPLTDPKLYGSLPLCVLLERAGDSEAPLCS

[17] = biological target: T5, Caspase-6 (Homo sapiens, UniProt P55212); assay: inhibition of CASP6 peptide cleavage – biochemical, VEID-R110 fluorescence, cherry-pick, dose response (AID 720632)
T5 sequence (P55212 whole entry): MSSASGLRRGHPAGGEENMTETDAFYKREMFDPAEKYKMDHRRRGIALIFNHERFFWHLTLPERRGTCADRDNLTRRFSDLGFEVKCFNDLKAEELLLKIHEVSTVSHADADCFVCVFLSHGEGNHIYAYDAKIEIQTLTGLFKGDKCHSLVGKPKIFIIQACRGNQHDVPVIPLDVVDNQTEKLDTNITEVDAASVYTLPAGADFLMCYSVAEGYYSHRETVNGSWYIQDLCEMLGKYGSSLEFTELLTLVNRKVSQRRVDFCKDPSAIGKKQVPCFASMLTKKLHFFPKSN

[18] = biological target: Melanin-concentrating hormone receptor 1 (Homo sapiens, UniProt Q99705); assay: Late-stage fluorescence-based counterscreen for antagonists of the G-protein coupled receptor 7 (GPR7): cell-based dose response assay to identify antagonists of the melanin-concentrating hormone receptor 1 (MCHR1) Set 5.; assay type: functional
[19] = biological target: T6, Aurora kinase A (Homo sapiens, UniProt O14965); assay type: functional;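 further: value from the Navigating the Kinome kinase panel profiling, panel entry STK6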
T6 sequence (O14965 whole entry): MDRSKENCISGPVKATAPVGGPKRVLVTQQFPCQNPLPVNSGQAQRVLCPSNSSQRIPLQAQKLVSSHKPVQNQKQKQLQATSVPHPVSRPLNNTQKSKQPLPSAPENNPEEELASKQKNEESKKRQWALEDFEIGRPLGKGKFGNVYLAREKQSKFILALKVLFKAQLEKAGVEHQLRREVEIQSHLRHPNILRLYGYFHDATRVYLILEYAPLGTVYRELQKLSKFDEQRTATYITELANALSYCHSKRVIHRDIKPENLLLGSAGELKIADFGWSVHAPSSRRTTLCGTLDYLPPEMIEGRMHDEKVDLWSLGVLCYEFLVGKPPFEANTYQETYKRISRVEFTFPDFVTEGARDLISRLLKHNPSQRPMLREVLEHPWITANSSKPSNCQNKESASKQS

[20] = biological target: Cyclin-dependent kinase 19 (Homo sapiens, UniProt Q9BWU1); assay: Navigating the Kinome. Panel member name: CDC2L6; assay type: functional
Sequence of Cyclin-dependent kinase 19 (Q9BWU1 whole entry): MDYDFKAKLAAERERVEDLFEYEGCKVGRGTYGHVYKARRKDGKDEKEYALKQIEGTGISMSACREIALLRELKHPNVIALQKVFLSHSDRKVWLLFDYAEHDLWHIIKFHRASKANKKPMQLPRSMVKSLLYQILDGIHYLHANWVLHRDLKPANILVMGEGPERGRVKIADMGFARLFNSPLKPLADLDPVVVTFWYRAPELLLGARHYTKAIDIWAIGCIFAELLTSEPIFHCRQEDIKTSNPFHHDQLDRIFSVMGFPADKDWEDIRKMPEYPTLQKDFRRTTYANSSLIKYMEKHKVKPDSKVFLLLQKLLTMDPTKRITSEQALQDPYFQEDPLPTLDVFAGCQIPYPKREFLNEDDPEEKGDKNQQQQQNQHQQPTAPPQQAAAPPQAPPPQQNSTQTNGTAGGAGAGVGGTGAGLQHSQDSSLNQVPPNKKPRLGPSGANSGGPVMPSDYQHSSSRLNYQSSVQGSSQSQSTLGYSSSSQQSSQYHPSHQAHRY

Sequence of Protein disulfide-isomerase (P07237 whole entry): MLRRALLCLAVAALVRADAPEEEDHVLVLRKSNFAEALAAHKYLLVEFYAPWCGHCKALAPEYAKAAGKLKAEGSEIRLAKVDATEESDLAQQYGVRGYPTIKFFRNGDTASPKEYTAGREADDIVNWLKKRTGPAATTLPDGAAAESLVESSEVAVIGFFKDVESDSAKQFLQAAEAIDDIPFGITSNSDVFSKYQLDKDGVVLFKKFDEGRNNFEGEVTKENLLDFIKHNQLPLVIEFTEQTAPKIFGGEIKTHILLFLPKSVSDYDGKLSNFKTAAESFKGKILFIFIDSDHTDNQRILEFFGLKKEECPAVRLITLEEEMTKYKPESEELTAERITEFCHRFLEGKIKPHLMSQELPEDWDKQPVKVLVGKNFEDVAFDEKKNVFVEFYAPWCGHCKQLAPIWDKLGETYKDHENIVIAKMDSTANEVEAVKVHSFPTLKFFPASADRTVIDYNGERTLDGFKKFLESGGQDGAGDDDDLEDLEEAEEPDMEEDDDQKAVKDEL
Sequence of Beta-2 adrenergic receptor (P07550 whole entry): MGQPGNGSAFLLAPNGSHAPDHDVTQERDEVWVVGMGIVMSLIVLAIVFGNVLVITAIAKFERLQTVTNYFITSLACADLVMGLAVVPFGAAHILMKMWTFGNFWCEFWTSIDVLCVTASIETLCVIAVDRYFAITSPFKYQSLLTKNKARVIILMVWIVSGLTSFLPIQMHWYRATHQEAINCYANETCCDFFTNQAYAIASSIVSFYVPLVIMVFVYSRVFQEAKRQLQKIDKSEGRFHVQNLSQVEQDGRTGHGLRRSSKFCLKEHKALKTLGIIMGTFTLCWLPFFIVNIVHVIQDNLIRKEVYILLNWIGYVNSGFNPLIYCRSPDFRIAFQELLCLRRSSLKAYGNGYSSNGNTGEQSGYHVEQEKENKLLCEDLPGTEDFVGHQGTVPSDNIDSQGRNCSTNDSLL
Sequence of Melanin-concentrating hormone receptor 1 (Q99705 whole entry): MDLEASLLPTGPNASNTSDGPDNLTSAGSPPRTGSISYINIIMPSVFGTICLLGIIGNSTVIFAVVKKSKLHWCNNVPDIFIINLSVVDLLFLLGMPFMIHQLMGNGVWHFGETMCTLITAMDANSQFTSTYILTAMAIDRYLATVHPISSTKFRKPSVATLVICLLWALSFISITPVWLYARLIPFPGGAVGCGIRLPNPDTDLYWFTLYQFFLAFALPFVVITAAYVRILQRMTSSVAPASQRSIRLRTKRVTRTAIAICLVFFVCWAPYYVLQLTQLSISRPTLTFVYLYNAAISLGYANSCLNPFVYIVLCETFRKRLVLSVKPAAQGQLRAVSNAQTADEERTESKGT
Sequence of Genome polyprotein (P29990 2492-3391 limits assumed): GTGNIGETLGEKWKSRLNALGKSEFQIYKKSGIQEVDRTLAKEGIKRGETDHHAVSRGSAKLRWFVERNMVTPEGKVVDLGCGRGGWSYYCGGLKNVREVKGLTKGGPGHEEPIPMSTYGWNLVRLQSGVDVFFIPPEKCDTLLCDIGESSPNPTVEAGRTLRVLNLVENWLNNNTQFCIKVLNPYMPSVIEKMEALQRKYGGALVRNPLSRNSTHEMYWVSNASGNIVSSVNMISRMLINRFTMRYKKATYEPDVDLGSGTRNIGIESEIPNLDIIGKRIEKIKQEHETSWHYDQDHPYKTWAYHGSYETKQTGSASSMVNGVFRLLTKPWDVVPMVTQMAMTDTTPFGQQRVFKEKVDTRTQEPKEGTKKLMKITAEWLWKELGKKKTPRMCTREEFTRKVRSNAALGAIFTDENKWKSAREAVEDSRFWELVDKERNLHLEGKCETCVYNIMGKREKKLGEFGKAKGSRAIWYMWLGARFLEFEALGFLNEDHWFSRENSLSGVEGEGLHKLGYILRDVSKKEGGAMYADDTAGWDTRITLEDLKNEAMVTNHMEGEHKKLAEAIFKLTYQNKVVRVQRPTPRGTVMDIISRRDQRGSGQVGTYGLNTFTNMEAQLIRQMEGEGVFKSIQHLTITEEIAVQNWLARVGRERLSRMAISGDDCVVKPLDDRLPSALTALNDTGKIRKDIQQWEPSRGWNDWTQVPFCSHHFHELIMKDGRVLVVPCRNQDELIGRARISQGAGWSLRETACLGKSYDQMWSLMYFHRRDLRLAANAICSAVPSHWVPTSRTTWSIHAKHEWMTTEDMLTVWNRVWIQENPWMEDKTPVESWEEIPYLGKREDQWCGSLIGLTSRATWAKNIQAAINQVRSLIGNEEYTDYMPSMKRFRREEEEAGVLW

In the case of `O=C1C=C(c2ccc(-c3ccccc3)cc2)C[C@@H](c2ccc3c(c2)OCO3)C1`, the EC50 [1] is reported as > 54.7 µM (inactive), the EC50 [2] is reported as > 54.7 µM (inactive) and the IC50 [3] is reported as > 89.2 µM (inactive). The EC50 [4] was > 54.7 µM (inactive).

In the case of `CNC(=S)N(Cc1cccs1)Cc1cc2cc(OC)ccc2nc1O`, the EC50 [1] is reported as > 54.7 µM (inactive), the EC50 [2] is reported as > 54.7 µM (inactive) and the IC50 [3] is reported as > 89.3 µM (inactive). For the same compound, the EC50 [4] was > 54.7 µM (inactive).

With `Cc1nnc(O)c2c(NC(=O)CSc3nnnn3-c3ccc(O)cc3)oc(C)c12` the AC50 [5] was 19.5 µM (active).

In the case of `COc1cc2c(cc1Cl)C(=O)C(F)(c1ccccc1)C(=O)N2` (centres undefined), the EC50 [6] is reported as 7.03 µM (inactive).

In the case of `CC(=O)C1=C(O)C(=O)N(c2cc(C(C)(C)C)on2)C1c1ccc(C(C)C)cc1` (centres undefined), the CC50 [7] is reported as > 40 µM (active) and the IC50 [8] is reported as 95.3 µM (active).

For `C=CCn1c(SCc2ccc(F)cc2)nnc1-c1sc2nc(C)cc(C)c2c1N`, the EC50 [9] was 0.423 µM (active), the EC50 [10] was > 60 µM (not active) and the EC50 [6] was 0.029 µM (active).

With `O=C(c1ccc2c(c1)OCO2)N(Cc1cccs1)C1(C(=O)NC2CCCCC2)CCCCC1` the CC50 [7] was > 40 µM (active).

In the case of `Oc1nc(Nc2ccccn2)cc2ccccc12`, the EC50 [11] is reported as 4 µM (active), the EC50 [12] is reported as 6.15 µM (active) and the EC50 [13] is reported as 36.8 µM (active). For the same compound, the AC50 [14] was > 100 µM (inactive), the EC50 [15] was > 380 µM (inactive) and the AC50 [16] was 14 µM (active). The AC50 [17] was 5.89 µM (active).

For `Cc1noc(C)c1S(=O)(=O)Nc1ccc2c(c1)CC(=O)N([C@H](C)CO)C[C@H](C)[C@H](CN(C)S(=O)(=O)c1ccc(F)cc1)O2`, the AC50 [5] was 16.9 µM (active) and 19.5 µM (active).

In the case of `COc1ccc(Oc2c(Cl)cnn(CC(=O)N(c3ccccc3)c3ccccc3)c2=O)cc1`, the IC50 [18] is reported as 10.7 µM (inactive).

With `Cc1ccc(NC(=O)Nc2ccc(-c3c(Cc4cccnc4)sc4ncnc(N)c34)cc2)cc1` the Ki [19] was 0.0631 µM (active) and the Ki [20] was > 100 µM (inactive).

For `C/C(CC(=O)N1CCCC1)=N\NC(=O)c1cc2ccccc2cc1O`, the CC50 [7] was 17.5 µM (active) and the AC50 [17] was 1.88 µM (active).
